Entries after “also recorded” stand apart in the source; their conditions may differ.
How the values were obtained:
C-nociceptors = assay: Spontaneous activity in C-nociceptors, rat crush-induced sciatic neuropathy (microneurography); conditions: 25 μg/Kg i.p.; for spontaneous activity in C-fibers (action potentials recorded in the sciatic nerve): after administration, FIG. 1
Method: To investigate the effects of a CGRP receptor antagonist on pathological spontaneous activity in C-nociceptors the following experiments were performed on Sprague-Dawly rats. Crush-inducing sciatic neuropathy was produced in 12 male Sprague-Dawley rats. Spontaneous activity in injured C-nociceptors was then detected with microneurography and the response to CGRP receptor antagonist was assessed under unblind conditions. This study aimed to assess the effect of the CGRP receptor antagonist, on electrophysiological measures of spontaneous activity in subpopulations of injured C-nociceptors in a model of neuropathic pain, and to investigate the effects of the CGRP receptor antagonist on pathological spontaneous activity in peripheral C-nociceptors.
All surgical procedures were performed under general anesthesia (ketamine 90 mg/kg+xylazine 10 mg/kg i.p. (intraperitoneal)). The sciatic nerve was exposed at mid-thigh level. A standardized injury was produced by crushing the nerve three times in succession with a very fine point forcep at a constant point, 90 mm from the tip of the third digit. The wound was then sutured by layers and disinfected with povidone iodine. The animals received an analgesic subcutaneous (s.c). dose of buprenorphine and were maintained in a warm environment until full recovery from the anesthetic, and were allowed to recover from the nerve injury for a minimum of 70 days.
CGRP receptor antagonist (SEQ ID NO: 1) was dissolved according to manufacturer's instructions in saline solution, at a final concentration of 25 μg/Kg. Volumes of the intraperitoneal (i.p.) injected bolus ranged from 0.48 to 0.58 ml.
Animals weighing 478±36 g (mean±SD) on the day of the recording were anesthetized with ketamine (90 mg/Kg) and xylazine (10 mg/Kg) injected i.p (intraperitoneal). Repeated administrations of one-half of the initial dose were performed as required to maintain the level of anesthesia, usually every hour.
Recordings of the sciatic nerve electrical activity were obtained inserting a tungsten microelectrode (FHC, Bowdoinham, ME, USA, nominal impedance 50-100KΩ, shaft Ø 175 μm (Ø=diameter)) into the sciatic nerve trunk with the aid of a micromanipulator. The recording electrode was carefully advanced into the nerve with the micromanipulator until characteristic neural audio signal could be heard. The method follows the same principles of the microneurographic technique employed in human patients.
The neural signals were first amplified with an isolated, high input impedance amplifier, band-pass filtered (maximum range 50-5000 Hz) and passed through a noise eliminator. The signal was then fed to an AM10 audio-monitor with noise clipper (Grass Technologies, Warwick, RI, USA) and to computers running separate software for collecting spontaneous and electrically evoked activity. Electrical stimuli were delivered to the cutaneous receptive field of the units by means of a constant current stimulator (DS7A, Digitimer, Welwyn Garden City, Hertfordshire, UK).
Electrical stimuli were triggered and the responses to electrical stimulation recorded and analyzed with a PC and PCI-6221M data acquisition board (National Instruments, […], USA) running QTRAC software (©Institute of Neurology, London, UK). Spontaneous activity was digitized at 20 kHz and recorded continuously on one of the computers running LabChart software (PowerLab Systems, ADInstruments Ltd., Bella Vista, New South Wales, Australia). Analysis was performed with software written by Neuroscience Technologies, Science Park of Barcelona, Spain, to detect and quantify spontaneous activity.
Trigger pulses were delivered to the stimulator at different frequencies necessary to induce ADS of conduction velocity of the recorded C-fibers. The digitized responses were stored on computer as raw data for off-line analysis.

[1] = tested on: retinal ganglion cell (RGC); assay: Rat laser glaucoma model: number of RGCs (Brn3a positive cells) in retinal whole mounts; type: in vivo, Wistar rats
Method: In this study, Wistar rats (n=12) were used for the experiments. The neuroprotective properties of compounds were investigated in a rat laser model of glaucoma. Rats were divided into two groups of six rats each. One group served as a placebo control receiving vehicle (NaCl) injections, and the other was treated with a peptide CGRP receptor antagonist (SEQ ID NO: 1). For all 12 rats, the contralateral, untreated eye served as a naïve undiseased control. The vehicle control and test compound (20 mg/kg) were administered systemically (IP) daily for the whole follow-up period of two weeks. The animals were sacrificed using transcardial perfusion. […] The number of Brn3a positive profiles was manually counted from retinal images taken from central and peripheral parts of retina. […]
1. Quantification of Brn3a and GFAP-positive cells from retinal whole mounts manually and using stereology. […]
Retinal whole mounts were immuno-stained against RGC (Brn3a) and astrocytic (GFAP) antibodies and the number of cells was quantified either manually (Brn3a) or as previously described (Kalesnykas et al., 2008).
The retinas were immuno-stained against RGC specific antibody Brn3a, retinas were imaged and Brn3a positive profiles were counted manually using Image J software (NIH, Bethesda, Maryland, USA). […]

[2] = 10 min before vs 10 min after administration, paired t-test, listed as CGRP receptor antagonist

## NH2-Ala-Cys-Asp-Thr-Ala-Ala-Cys-Val-Leu-Gly-Arg-Leu-Ser-Gln-Glu-Leu-His-Arg-Leu-Gln-Thr-Tyr-Pro-Arg-Thr-Asn-Val-Gly-Ser-Lys-Ala-Phe-NH2 (H-ACDTAACVLGRLSQELHRLQTYPRTNVGSKAF-NH2; ends and bridges not checked) [SEQ ID NO: 1, peptide CGRP receptor antagonist]
C-nociceptors; [2]
  SLI/10 min (Significant Latency Increase): did not reveal a statistically significant effect; also recorded: No significant differences were observed
  TI (%) (Total Increase): did not reveal a statistically significant effect; also recorded: No significant differences were observed
C-nociceptors; rat crush sciatic neuropathy
  spontaneous activity in C-fibers (action potentials recorded in the sciatic nerve): preventing further spontaneous activity in the C-fibers
C-nociceptors; rat crush sciatic neuropathy, listed as CGRP receptor antagonist
  spontaneous activity in C-fibers (action potentials recorded in the sciatic nerve): virtually no excitation observed
C-nociceptors; rat crush sciatic neuropathy, up to 90 min
  spontaneous activity at long intervals after the administration: less spontaneous activity
C-nociceptors; rats, whole procedure
  Morbidity and mortality: in good condition during the whole procedure
[1]; IP daily for two weeks, increase, P=0.43
  number of Brn3a positive cells, increase in lasered eyes vs contralateral control eyes: 3.0%
[1]; rat glaucoma model, systemic administration
  neuroprotection at cellular and optic nerve axon levels: showed neuroprotection

Source: patent publication US12103951B2, “Use of CGRP receptor antagonists in neuroprotection and neurological disorders” (priority 2016, dated 2024)
